The results in this text go back to US20090258878A1, “TRIAZINE DERIVATIVE COMPOUND AND COMPOSITION FOR TREATING CANCER […]” (priority 2006, published 2009).

Where two headings read alike, the source gives them in different places.

The test system of assay [1] is MCF-7 breast cancer cell line. The conditions noted are these: for growth inhibition effect on cell (FIG. 1): 2 days. The method, then:
2×10^5 MCF-7 cells were respectively distributed into each 6 well plates and grown. Thereafter, Dan-BC1, Dan-BC2 and Dan-BC3 compounds were diluted to be dose concentration of 10, 50 and 100 μM, and after treating them into cancers for 2 days according to the concentration, they were compared by measuring the cell viability with those of drug-untreated group.

Another assay has as its system MCF-7 tumor cells. The conditions noted are these: for Height of breast cancer mass / Major Axis of breast cancer mass / Minor Axis of breast cancer mass: nude mouse; for in vivo anticancer effect regarding breast cancer formed in nude mouse: two administrations of 500 μM, vs negative control mass size. The procedure:
Weekly administration of experiment compound was initiated 2 days after measurement of tumor size. The concentration of the first administration was 500 μM, respectively.

For assay [2], the system named is breast cancers naturally formed in female mouse transformed to form cancer (HCCR-1). The conditions noted are these: for anticancer effect against breast cancer formed in transformed mouse in vivo / breast cancer after one administration: 100 μM; for anti-cancer effect on transformed animal model, rank order (FIG. 11) / formation of cancer again at second injection: 100 μM weekly; for breast cancer after one administration: transformed mouse with naturally formed breast cancer; for formation of cancer again at second injection: transformed mouse. The method, then: Anticancer effect of Dan-BC1, Dan-BC2 and Dan-BC3 according to the present invention was assessed using the mouse transformed with human proto-oncogene causing cancer which was over-expressed in mammal.
Since the cell line used for the transformed mouse has capacity for forming tumor, it forms a carcinoma such as palpable tumor when transplanted into mammal. Cell line used in the present experiment produces a large quantity of HCCR-1 protein by overexpressing human proto-oncogene (hereafter, HCCR-1), which protein interacts with D52 protein (GenBank Reg. No. NM003288) as reported as being related to cancer (Byrne, J. A. et al., Cancer Res., 55, 2896-2903 (1995); and Bryne, J. A. et al., Oncogene, 16, 873-881 (1998) reference), activates protein Kinases C and Telomerase, incapacitates the function of controlling cell cycle checkpoint, and transforms into malignant tumor though the course of lowering the expression of egr-1 gene.

Where [3] appears, read: 1 week after First Administration, 500 μM.
Setting [4] is: 1 day before First Administration.
Where [5] appears, read: the day of First Administration, 500 μM.

Consider `C=CCNc1nc(NCCCC)nc(NCc2ccc(C(=O)NCCOCCOCCNC(=O)c3ccccc3)cc2)n1` [Dan-BC1], for which the “growth inhibition effect on cell (FIG. 1)” value (“growth inhibition effect” for short) is “weak growth inhibition effect on cell” in assay [1] (10 μM), “no significant growth inhibition effect on cell” in assay [1] (50 μM) and “an extinct effect on cell was apparent to the naked eye” in assay [1] (100 μM). Also, the “cells survived compared with cells without administration” value in assay [1] (100 μM, 12 hours) is “about 68%”; in assay [1] (100 μM, 24 hours), “about 37%”; in assay [1] (100 μM, 36 hours), “about 27%”; in assay [1] (100 μM, 48 hours), “all cells reached extinction”. The “extinction effect on breast cancer cell in nude mouse, rank order (FIG. 7)” value (shortened to “extinction effect on breast cancer cell”) with MCF-7 tumor cells (500 μM) was “high in case of Dan-BC1, Dan-BC3 compound, and Dan-BC2 compound in that order”. Besides, the entries for the “Height of breast cancer mass” value with MCF-7 tumor cells (setting [3]), in the assay with MCF-7 tumor cells (setting [4]) and in the assay on MCF-7 tumor cells (setting [5]) were 2 mm, 2 mm and 5 mm, respectively. Further, the “Major Axis of breast cancer mass” value was 10 mm in the assay on MCF-7 tumor cells (setting [3]), 4 mm in the assay on MCF-7 tumor cells (setting [4]) and 12 mm in the assay on MCF-7 tumor cells (setting [5]). Besides, the “Minor Axis of breast cancer mass” value with MCF-7 tumor cells (setting [3]) is 8 mm; in the assay on MCF-7 tumor cells (setting [4]) it was 2 mm; with MCF-7 tumor cells (setting [5]), 10 mm. In addition, the “in vivo anticancer effect regarding breast cancer formed in nude mouse” value in the assay with MCF-7 tumor cells is recorded as “strong in vivo anticancer effect”. Also, in assay [2], the “anticancer effect against breast cancer formed in transformed mouse in vivo” value (shortened to “anticancer effect … in transformed mouse in vivo”) is given as “strong anticancer effect”. In addition, the “anti-cancer effect on transformed animal model, rank order (FIG. 11)” value (“anti-cancer effect” below) in assay [2] was “the most superior”. Also, the “breast cancer after one administration” value in assay [2] is given as “extinction of breast cancer was resulted even with administration of only once”.

As to `CCCCNc1nc(NCc2ccncc2)nc(NCc2ccc(C(=O)NCCOCCOCCNC(=O)c3ccccc3)cc2)n1` [Dan-BC2], the “growth inhibition effect” value in assay [1] (10 μM) is “weak growth inhibition effect on cell”; in assay [1] (50 μM), “no significant growth inhibition effect on cell”; in assay [1] (100 μM), “an extinct effect on cell was apparent to the naked eye”. Also, the “cells survived compared with cells without administration” value is reported as “about 75%” in assay [1] (100 μM, 12 hours); “about 49%” in assay [1] (100 μM, 24 hours); “about 33%” in assay [1] (100 μM, 36 hours); 20% in assay [1] (100 μM, 48 hours). Besides, the “extinction effect on breast cancer cell” value in the assay with MCF-7 tumor cells (500 μM) was “high in case of Dan-BC1, Dan-BC3 compound, and Dan-BC2 compound in that order”. The “Height of breast cancer mass” value in the assay on MCF-7 tumor cells (setting [3]) stood at 3 mm; with MCF-7 tumor cells (setting [4]) it was 2 mm; in the assay on MCF-7 tumor cells (setting [5]), 5 mm. Also, the “Major Axis of breast cancer mass” value in the assay on MCF-7 tumor cells (setting [3]) was 15 mm; with MCF-7 tumor cells (setting [4]), 4 mm; in the assay with MCF-7 tumor cells (setting [5]), 12 mm. In addition, the “Minor Axis of breast cancer mass” value in the assay on MCF-7 tumor cells (setting [3]) is listed as 10 mm; with MCF-7 tumor cells (setting [4]), 2 mm; in the assay with MCF-7 tumor cells (setting [5]), 10 mm. Also, the “in vivo anticancer effect regarding breast cancer formed in nude mouse” value with MCF-7 tumor cells is listed as “strong in vivo anticancer effect”. The “anticancer effect … in transformed mouse in vivo” value in assay [2] is “showed anticancer effect”. In addition, the “anti-cancer effect” value in assay [2] was “as an order of the next Dan-BC3, and Dan-BC2”. Besides, the “formation of cancer again at second injection” value in assay [2] is “formation of cancer was induced again at the time of the 2nd injection”. The “breast cancer after one administration” value in assay [2] is “breast cancer became extinct”.

As for `CCCCNc1nc(NCc2ccc(C(=O)NCCOCCOCCNC(=O)c3ccccc3)cc2)nc(NC(CC)CC)n1` [Dan-BC3], the “growth inhibition effect” value is “weak growth inhibition effect on cell” in assay [1] (10 μM), “no significant growth inhibition effect on cell” in assay [1] (50 μM) and “an extinct effect on cell was apparent to the naked eye” in assay [1] (100 μM). In addition, the “cells survived compared with cells without administration” value in assay [1] (100 μM, 12 hours) was “about 60%”; in assay [1] (100 μM, 24 hours) it was “about 37%”; in assay [1] (100 μM, 36 hours), “about 7%”; in assay [1] (100 μM, 48 hours), “all cells reached extinct”. Also, in the assay with MCF-7 tumor cells (500 μM), the “extinction effect on breast cancer cell” value is “high in case of Dan-BC1, Dan-BC3 compound, and Dan-BC2 compound in that order”. Moreover, the “Height of breast cancer mass” value with MCF-7 tumor cells (setting [3]) is 2 mm; in the assay with MCF-7 tumor cells (setting [4]) it was 2 mm; in the assay with MCF-7 tumor cells (setting [5]), 5 mm. Besides, the “Major Axis of breast cancer mass” value with MCF-7 tumor cells (setting [3]) was determined as 15 mm; in the assay with MCF-7 tumor cells (setting [4]), 4 mm; with MCF-7 tumor cells (setting [5]), 12 mm. Besides, the “Minor Axis of breast cancer mass” value in the assay on MCF-7 tumor cells (setting [3]) worked out at 10 mm; with MCF-7 tumor cells (setting [4]), 2 mm; in the assay on MCF-7 tumor cells (setting [5]), 7 mm. Moreover, the “in vivo anticancer effect regarding breast cancer formed in nude mouse” value with MCF-7 tumor cells is on record as “strong in vivo anticancer effect”. The “anticancer effect … in transformed mouse in vivo” value in assay [2] is recorded as “showed anticancer effect”. For the same molecule, the “anti-cancer effect” value in assay [2] is “as an order of the next Dan-BC3, and Dan-BC2”. The “formation of cancer again at second injection” value in assay [2] is on record as “formation of cancer was derived again at the time of the second injection”. Besides, the “breast cancer after one administration” value in assay [2] is reported as “breast cancer became extinct”.
